From US20150031668A1, “CHROMAN DERIVATIVES AS TRPM8 INHIBITORS” (AMGEN INC., priority 2013, published 2015)
Where a name gives a salt, the structure may show the parent alone. Read-outs that look alike come from different tables or passages of the source.

Target: T1, human TRPM8 (Homo sapiens, UniProt Q7Z2W7)
T1 construct: expressed in transfected cells; host or cells: Chinese hamster ovary (CHO) cells, T-REx tetracycline-inducible expression system (Invitrogen); co-transfected with pcDNA3.1 aequorin
Experiment: Luminescence readout assay for measuring intracellular calcium (aequorin, CHO cells expressing human TRPM8; icilin, L-menthol or cold activation)
Format: cell-based
Outline: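 Activation was by 1 μM icilin, 100 μM L-menthol (test compound 2.5 min ahead) or cold buffer below 10° C (compound 1 min ahead). Calcium rise measured as aequorin luminescence in CHO cells with tetracycline-inducible human TRPM8.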

[1] = CHO cells expressing human TRPM8, icilin activation (1 μM), aequorin luminescence, read-out: hTRPM8 IC50

T1 sequence (Q7Z2W7 whole entry): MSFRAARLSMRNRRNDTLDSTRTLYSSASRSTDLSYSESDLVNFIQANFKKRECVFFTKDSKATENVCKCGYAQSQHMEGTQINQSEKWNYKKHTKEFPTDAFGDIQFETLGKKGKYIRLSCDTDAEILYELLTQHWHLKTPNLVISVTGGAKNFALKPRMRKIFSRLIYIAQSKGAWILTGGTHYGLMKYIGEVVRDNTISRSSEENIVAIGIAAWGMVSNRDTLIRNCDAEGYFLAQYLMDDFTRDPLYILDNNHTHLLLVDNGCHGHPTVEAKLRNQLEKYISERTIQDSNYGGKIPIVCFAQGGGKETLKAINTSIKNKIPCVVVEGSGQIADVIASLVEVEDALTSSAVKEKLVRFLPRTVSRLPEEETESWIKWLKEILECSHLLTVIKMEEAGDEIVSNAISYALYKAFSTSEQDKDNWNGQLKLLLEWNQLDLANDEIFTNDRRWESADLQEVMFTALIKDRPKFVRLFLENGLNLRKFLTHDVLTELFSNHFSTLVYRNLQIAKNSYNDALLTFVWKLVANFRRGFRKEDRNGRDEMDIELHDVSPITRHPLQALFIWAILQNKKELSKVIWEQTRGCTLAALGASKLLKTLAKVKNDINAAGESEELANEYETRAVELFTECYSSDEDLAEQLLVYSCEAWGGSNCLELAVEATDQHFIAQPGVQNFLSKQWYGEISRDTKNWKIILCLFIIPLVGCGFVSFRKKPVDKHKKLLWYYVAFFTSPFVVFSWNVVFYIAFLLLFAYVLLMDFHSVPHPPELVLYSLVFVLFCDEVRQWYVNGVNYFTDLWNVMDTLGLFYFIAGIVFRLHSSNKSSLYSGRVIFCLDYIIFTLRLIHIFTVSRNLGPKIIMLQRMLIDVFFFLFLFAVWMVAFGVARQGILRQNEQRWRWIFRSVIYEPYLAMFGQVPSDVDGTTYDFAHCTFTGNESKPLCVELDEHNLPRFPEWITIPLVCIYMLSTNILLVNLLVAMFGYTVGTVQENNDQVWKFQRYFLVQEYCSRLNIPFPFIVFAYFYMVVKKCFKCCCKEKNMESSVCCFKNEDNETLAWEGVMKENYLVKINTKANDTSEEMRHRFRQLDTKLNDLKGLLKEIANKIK

Compound	IC50 [1]	IC50
O=C(N[C@]1(c2ccc(OC(F)(F)F)cc2)CCOc2cccnc21)c1ccsn1 [Example 232, (S)-N-(4-(4-(trifluoromethoxy)phenyl)-3,4-dihydro-2H-pyrano[3,2-b]pyridin-4-yl)isothiazole-3-carboxamide formate]	25.8 nM	
O=C(N[C@]1(c2ccc(OC(F)(F)F)cc2)CCOc2cccnc21)c1cncs1 [Example 233, (S)-N-(4-(4-(trifluoromethoxy)phenyl)-3,4-dihydro-2H-pyrano[3,2-b]pyridin-4-yl)thiazole-5-carboxamide formate]	222 nM	
O=C(N[C@]1(c2ccc(OC(F)(F)F)cc2)CCOc2cccnc21)c1c[nH]c2ccccc12 [Example 234, (S)-N-(4-(4-(trifluoromethoxy)phenyl)-3,4-dihydro-2H-pyrano[3,2-b]pyridin-4-yl)-1H-indole-3-carboxamide foraiate]	56.8 nM	
O=C(N[C@]1(c2ccc(OC(F)(F)F)cc2)CCOc2cccnc21)c1ccc2cc[nH]c2c1 [Example 235, (S)-N-(4-(4-(trifluoromethoxy)phenyl)-3,4-dihydro-2H-pyrano[3,2-b]pyridin-4-yl)-1H-indole-6-carboxamide formate]	35.7 nM	
O=C(N[C@]1(c2ccc(OC(F)(F)F)cc2)CCOc2cccnc21)c1cc2ccccc2o1 [Example 236, (S)-N-(4-(4-(trifluoromethoxy)phenyl)-3,4-dihydro-2H-pyrano[3,2-b]pyridin-4-yl)benzofuran-2-carboxamide formate]	66.5 nM	
O=C(N[C@]1(c2ccc(OC(F)(F)F)cc2)CCOc2cccnc21)c1ccc2[nH]cnc2c1 [Example 237, (S)-N-(4-(4-(trifluoromethoxy)phenyl)-3,4-dihydro-2H-pyrano[3,2-b]pyridin-4-yl)1lH-benzo[d]imidazole-5-carboxamide formate]		4.07 nM
O=C(N[C@]1(c2ccc(OC(F)(F)F)cc2)CCOc2cccnc21)c1cccc2[nH]cnc12 [Example 238, (S)-N-(4-(4-(trifluoromethoxy)phenyl)-3,4-dihydro-2H-pyrano[3,2-b]pyridin-4-yl)-1H-benzo[d]imidazole-4-carboxamide formate]	41.4 nM	
O=C(N[C@]1(c2ccc(OC(F)(F)F)cc2)CCOc2cccnc21)c1cn2ccccc2n1 [Example 239, (S)-N-(4-(4-(trifluoromethoxy)phenyl)-3,4-dihydro-2H-pyrano[3,2-b]pyridin-4-yl)imidazo[1,2-a] pyridine-2-carboxamide formate]	34.6 nM	
O=C(N[C@]1(c2ccc(OC(F)(F)F)cc2)CCOc2cccnc21)c1ccc2nccn2c1 [Example 240, (S)-N-(4-(4-(trifluoromethoxy)phenyl)-3,4-dihydro-2H-pyrano[3,2-b]pyridin-4-yl)imidazo[1,2-a] pyridine-6-carboxamide formate]	40.6 nM	
O=C(N[C@]1(c2ccc(OC(F)(F)F)cc2)CCOc2cccnc21)c1nc2ccccc2[nH]1 [Example 241, (S)-N-(4-(4-(trifluoromethoxy)phenyl)-3,4-dihydro-2H-pyrano[3,2-b]pyridin-4-yl)-1H-benzo[d]imidazole-2-carboxamide formate]	769 nM	
O=C(N[C@]1(c2ccc(OC(F)(F)F)cc2)CCOc2cccnc21)c1n[nH]c2ncccc12 [Example 242, (S)-N-(4-(4-(trifluoromethoxy)phenyl)-3,4-dihydro-2H-pyrano[3,2-b]pyridin-4-yl)-1H-pyrazolo[3,4-b] pyridine-3-carboxamide formate]	5.55 nM	
O=C(N[C@]1(c2ccc(OC(F)(F)F)cc2)CCOc2cccnc21)c1cn2ncccc2n1 [Example 243, (S)-N-(4-(4-(trifluoromethoxy)phenyl)-3,4-dihydro-2H-pyrano[3,2-b]pyridin-4-yl)imidazo[1,2-b] pyridazine-2-carboxamide formate]	16.6 nM	
O=C(N[C@]1(c2ccc(OC(F)(F)F)cc2)CCOc2cccnc21)c1cnn2cccnc12 [Example 244, (S)-N-(4-(4-(trifluoromethoxy)phenyl)-3,4-dihydro-2H-pyrano[3,2-b]pyridin-4-yl)pyrazolo[1,5-a] pyrimidine-3-carboxamide formate]	52.1 nM	
O=C(N[C@]1(c2ccc(OC(F)(F)F)cc2)CCOc2cccnc21)C1Cc2ccccc2N1 (stereo partly drawn) [Example 245, N-((S)-4-(4-(trifluoromethoxy)phenyl)-3,4-dihydro-2H-pyrano[3,2-b]pyridin-4-yl)indoline-2-carboxamide formate]	254 nM	
O=C(N[C@]1(c2ccc(OC(F)(F)F)cc2)CCOc2cccnc21)C1Cc2ccccc2O1 (stereo partly drawn) [Example 246, N-((S)-4-(4-(trifluoromethoxy)phenyl)-3,4-dihydro-2H-pyrano[3,2-b]pyridin-4-yl)-2,3-dihydrobenzo furan-2-carboxamide formate]	94.4 nM	
O=C(N[C@]1(c2ccc(OC(F)(F)F)cc2)CCOc2cccnc21)c1nccc2ccccc12 [Example 247, (S)-N-(4-(4-(trifluoromethoxy)phenyl)-3,4-dihydro-2H-pyrano[3,2-b]pyridin-4-yl)isoquinoline-1-carboxamide formate]	30 nM	

Compound	IC50 [1]	IC50
O=C(N[C@]1(c2ccc(OC(F)(F)F)cc2)CCOc2cccnc21)c1cc2ccccc2cn1 [Example 248, (S)-N-(4-(4-(trifluoromethoxy)phenyl)-3,4-dihydro-2H-pyrano[3,2-b]pyridin-4-yl)isoquinoline-3-carboxamide formate]	24 nM	
O=C(N[C@]1(c2ccc(OC(F)(F)F)cc2)CCOc2cccnc21)c1cccc2cnccc12 [Example 249, (S)-N-(4-(4-(trifluoromethoxy)phenyl)-3,4-dihydro-2H-pyrano[3,2-b]pyridin-4-yl)isoquinoline-5-carboxamide formate]	99 nM	
O=C(N[C@]1(c2ccc(OC(F)(F)F)cc2)CCOc2cccnc21)c1ccc2cnccc2c1 [Example 250, (S)-N-(4-(4-(trifluoromethoxy)phenyl)-3,4-dihydro-2H-pyrano[3,2-b]pyridin-4-yl)isoquinoline-6-carboxamide formate]	15 nM	
O=C(N[C@]1(c2ccc(OC(F)(F)F)cc2)CCOc2cccnc21)c1ccc2ccccc2n1 [Example 251, (S)-N-(4-(4-(trifluoromethoxy)phenyl)-3,4-dihydro-2H-pyrano[3,2-b]pyridin-4-yl)quinoline-2-carboxamide formate]	56 nM	
O=C(N[C@]1(c2ccc(OC(F)(F)F)cc2)CCOc2cccnc21)c1cnc2ccccc2c1 [Example 252, (S)-N-(4-(4-(trifluoromethoxy)phenyl)-3,4-dihydro-2H-pyrano[3,2-b]pyridin-4-yl)quinoline-3-carboxamide formate]	24 nM	
O=C(N[C@]1(c2ccc(OC(F)(F)F)cc2)CCOc2cccnc21)c1ccc2ncccc2c1 [Example 253, (S)-N-(4-(4-(trifluoromethoxy)phenyl)-3,4-dihydro-2H-pyrano[3,2-b]pyridin-4-yl)quinoline-6-carboxamide formate]	4 nM	
O=C(N[C@]1(c2ccc(OC(F)(F)F)cc2)CCOc2cccnc21)c1ccc2cccnc2c1 [Example 254, (S)-N-(4-(4-(trifluoromethoxy)phenyl)-3,4-dihydro-2H-pyrano[3,2-b]pyridin-4-yl)quinoline-7-carboxamide fonnate]	25 nM	
O=C(N[C@]1(c2ccc(OC(F)(F)F)cc2)CCOc2cccnc21)c1cnc2ccccc2n1 [Example 255, (S)-N-(4-(4-(trifluoromethoxy)phenyl)-3,4-dihydro-2H-pyrano[3,2-b]pyridin-4-yl)quinoxaline-2-carboxamide formate]	9 nM	
Cn1c(C(=O)N[C@]2(c3ccc(OC(F)(F)F)cc3)CCOc3cccnc32)cc2ccccc21 [Example 256, (S)-1-methyl-N-(4-(4-(trifluoromethoxy)phenyl)-3,4-dihydro-2H-pyrano[3,2-b]pyridin-4-yl)-1H-indole-2-carboxamide formate]	48 nM	
Cn1cc(C(=O)N[C@]2(c3ccc(OC(F)(F)F)cc3)CCOc3cccnc32)c2ccccc21 [Example 257, (S)-1-methyl-N-(4-(4-(trifluoromethoxy)phenyl)-3,4-dihydro-2H-pyrano[3,2-b]pyridin-4-yl)-1H-indole-3-carboxamide formate]	59 nM	
Cn1ccc2cc(C(=O)N[C@]3(c4ccc(OC(F)(F)F)cc4)CCOc4cccnc43)ccc21 [Example 258, (S)-1-methyl-N-(4-(4-(trifluoromethoxy)phenyl)-3,4-dihydro-2H-pyrano[3,2-b]pyridin-4-yl)-1H-indole-5-carboxamide formate]	34 nM	
O=C(N[C@]1(c2ccc(OC(F)(F)F)cc2)CCOc2cccnc21)C1=Cc2ccccc2OC1 [Example 259, (S)-N-(4-(4-(trifluoromethoxy)phenyl)-3,4-dihydro-2H-pyrano[3,2-b]pyridin-4-yl)-2H-chromene-3-carboxamide formate]	88 nM	
Cn1c(C(=O)N[C@]2(c3ccc(OC(F)(F)F)cc3)CCOc3cccnc32)nc2ccccc21 [Example 260, (S)-1-methyl-N-(4-(4-(trifluoromethoxy)phenyl)-3,4-dihydro-2H-pyrano[3,2-b]pyridin-4-yl)-1H-benzo[d]imidazole-2-carboxamide formate]	32 nM	
Cn1ncc2c(C(=O)N[C@]3(c4ccc(OC(F)(F)F)cc4)CCOc4cccnc43)cccc21 [Example 261, (S)-1-methyl-N-(4-(4-(trifluoromethoxy)phenyl)-3,4-dihydro-2H-pyrano[3,2-b]pyridin-4-yl)-1H-indazole-4-carboxamide formate]	32 nM	
Cn1ncc2cc(C(=O)N[C@]3(c4ccc(OC(F)(F)F)cc4)CCOc4cccnc43)ccc21 [Example 262, (S)-1-methyl-N-(4-(4-(trifluoromethoxy)phenyl)-3,4-dihydro-2H-pyrano[3,2-b]pyridin-4-yl)-1H-indazole-5-carboxamide formate]	7 nM	
